# The source made the active and inactive calls.
# Legend:
# [1] = P. falciparum Dd2 growth inhibitors, dose response, SYBR Green, dry powder samples, set 9 (AID 1159568); format: functional, cell-based
# [2] = Late stage results for the probe development effort to identify inhibitors of Plasmodium falciparum gametocytes: Luminescence-based cell-based high throughput dose response assay to identify inhibitors of viability of late stage Plasmodium falciparum gametocytes.; format: functional
# [3] = HEK293T cell cytotoxicity, dose response, cytotoxicity control, plate reader, dry powder, set 10 (AID 743315); format: functional, cell-based; conditions: HEK293
# [4] = C. neoformans growth inhibition with sorbitol, dose response, mechanism study for C. neoformans lysis project, alamar blue, dry powder, set 3 (AID 743304); format: functional, organism-based
# [5] = P. falciparum Dd2 blood-stage growth inhibition, dose response, SYBR Green fluorescence, erythrocytes, dry powder, set 2 (AID 1159574); format: functional, cell-based
# [6] = TRPM1 promoter luciferase reporter signal decrease, dose response, MITF inhibitor project, cell-based, SK-MEL-5, dry powder, set 9 (AID 651588); format: functional
# [7] = MITF Orthogonal Assay: MALME3 CTG Assay Measured in Cell-Based System Using Plate Reader - 2084-04_Inhibitor_Dose_DryPowder_Activity_Set6.; format: functional; conditions: MALME-3
# [8] = SK-MEL-5 parental cell viability reduction, dose response, orthogonal assay for MITF inhibitor project, CellTiter-Glo luminescence, dry powder, set 8 (AID 651586); format: functional, cell-based
# [9] = MALME3 melanoma cell viability reduction, dose response, orthogonal assay for MITF inhibitor project, CellTiter-Glo luminescence, dry powder, set 5 (AID 651584); format: functional, cell-based; conditions: MALME-3
# [10] = MITF Orthogonal Assay: SK-MEL-5 CTG Assay Measured in Cell-Based System Using Plate Reader - 2084-02_Inhibitor_Dose_DryPowder_Activity_Set7.; format: functional
# [11] = MITF: Counter assay: A375 proliferation Measured in Cell-Based System Using Plate Reader - 2084-03_Inhibitor_Dose_DryPowder_Activity_Set8.; format: functional; conditions: A-375
# [12] = A375 melanoma cell viability loss, dose response, counter-screen for MITF modulator project, CellTiter-Glo luminescence, dry powder, set 9 (AID 651591); format: functional, cell-based; conditions: A-375
# [13] = TRPM1 promoter luciferase reporter signal decrease, dose response, MITF inhibitor project, cell-based, SK-MEL-5, dry powder, set 8 (AID 624430); format: functional
# [14] = cytotoxicity in primary human melanocytes, dose response, cytotoxicity control, cell-based, plate reader, dry powder (AID 651920); format: functional
# [15] = Concentration-dependent survival of SW480 colon cancer line, luminescence detection with CellTiter-Glo, half-maximal inhibitory concentration (AID 1117338); format: functional
# [16] = RKO cell viability reduction, dose response, CellTiter-Glo luminescence (AID 1117322); format: functional
# [17] = cytotoxicity toward HCT116 cells – cell-based, CellTiter-Glo luminescence, IC50, dose response (AID 1117332); format: functional; conditions: HCT-116
# [18] = SNU-C1 cell viability reduction, dose response, CellTiter-Glo luminescence (AID 1117323); format: functional, cell-based
# [19] = cytotoxicity toward HT-29 cells – cell-based, CellTiter-Glo luminescence, IC50, dose response (AID 1117330); format: functional
# [20] = CellTiter-Glo luminescent dose response of DLD-1 viability loss (AID 1117352); format: functional
structure (smiles),measurement,setting,value
CCCNC(=O)N1[C@H](C#N)[C@@H](c2ccccc2-c2cccc(C)c2)[C@@H]1CO,AC50,[1],10.2 µM (active)
O=C(Nc1nncs1)c1cc(-c2ccccc2)nn1-c1ccccc1,IC50,[2],> 37.2 µM (inactive)
CSc1nc2ccccc2n1CCOc1cc(C)ccc1C(C)C,AC50,[3],> 52 µM (inactive)
same,AC50,[4],41.6 µM (active)
COc1ccc(NC(=O)N2CCCCN3[C@H](CO)[C@@H](c4ccc(C#Cc5ccccc5)cc4)[C@H]3C2)cc1,AC50,[5],4.04 µM (active)
COc1ccc(NC2=C(N3CCCCC3)C(=O)c3ccccc3C2=O)cc1,AC50,[6],12 µM (active)
same,AC50,[7],11.2 µM (active)
same,AC50,[8],26.8 µM (active)
same,AC50,[9],11.2 µM (active)
same,AC50,[10],3.73 µM (active)
same,AC50,[11],> 70 µM (inactive)
same,AC50,[12],42.4 µM (active)
same,AC50,[13],2.48 µM (active)
same,AC50,[14],40.9 µM (active)
[N-]=[N+]=CC(=O)OC[C@H](N)C(=O)O [AZASERINE],IC50,[15],> 20 µM (inactive)
same,IC50,[16],> 20 µM (inactive)
same,IC50,[17],> 20 µM (inactive)
same,IC50,[18],> 20 µM (inactive)
same,IC50,[19],> 20 µM (inactive)
same,IC50,[20],> 20 µM (inactive)
